From patent publication US20250026721A1, “COMPOUNDS AND METHODS FOR MODULATING RAS-PI3K” (Vividion Therapeutics, Inc., priority 2023, published 2025)

How the values were obtained:
[1] = test system: pAKT(S473) in FaDu cell line; test: In vitro Phospho-AKT(S473) HTRF analysis in FaDu cells; type: cell-based; settings: Homo sapiens, 0.5 h; for IC50: FaDu cells, 30 minutes at 37° C.; for Emax: FaDu, read-out: FaDu pAKT Imax % control
Method in brief: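 FaDu or H358 cells were plated overnight in medium with 1% FBS, then exposed to a compound dose response for 30 minutes at 37° C. Phospho-AKT(S473) levels were measured by HTRF.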

[2] = target: T1, PIK3CA (Homo sapiens, UniProt P42336); test: In vitro ELISA target engagement assay for PIK3CA in Jurkat cellular lysate (competition with PIK3CA Biotin Probe); type: binding; settings: 1 hour at rt, then 500 nM PIK3CA Biotin Probe, read-out: Elisa Target Engagement Assay (TE50)
T1 construct: endogenous in cells; host or cells: Jurkat cell lysate
Method in brief: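 Jurkat lysate from sonicated frozen cells was preincubated 1 h at rt with serially diluted compound up to 200 μM, then labelled 1 h at rt with PIK3CA biotin probe at 500 nM final. Probe-bound PIK3CA was captured on antibody-coated plates and detected with Neutravidin-HRP luminescence; TE50 derived from the dose response.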

T1 sequence (P42336 whole entry): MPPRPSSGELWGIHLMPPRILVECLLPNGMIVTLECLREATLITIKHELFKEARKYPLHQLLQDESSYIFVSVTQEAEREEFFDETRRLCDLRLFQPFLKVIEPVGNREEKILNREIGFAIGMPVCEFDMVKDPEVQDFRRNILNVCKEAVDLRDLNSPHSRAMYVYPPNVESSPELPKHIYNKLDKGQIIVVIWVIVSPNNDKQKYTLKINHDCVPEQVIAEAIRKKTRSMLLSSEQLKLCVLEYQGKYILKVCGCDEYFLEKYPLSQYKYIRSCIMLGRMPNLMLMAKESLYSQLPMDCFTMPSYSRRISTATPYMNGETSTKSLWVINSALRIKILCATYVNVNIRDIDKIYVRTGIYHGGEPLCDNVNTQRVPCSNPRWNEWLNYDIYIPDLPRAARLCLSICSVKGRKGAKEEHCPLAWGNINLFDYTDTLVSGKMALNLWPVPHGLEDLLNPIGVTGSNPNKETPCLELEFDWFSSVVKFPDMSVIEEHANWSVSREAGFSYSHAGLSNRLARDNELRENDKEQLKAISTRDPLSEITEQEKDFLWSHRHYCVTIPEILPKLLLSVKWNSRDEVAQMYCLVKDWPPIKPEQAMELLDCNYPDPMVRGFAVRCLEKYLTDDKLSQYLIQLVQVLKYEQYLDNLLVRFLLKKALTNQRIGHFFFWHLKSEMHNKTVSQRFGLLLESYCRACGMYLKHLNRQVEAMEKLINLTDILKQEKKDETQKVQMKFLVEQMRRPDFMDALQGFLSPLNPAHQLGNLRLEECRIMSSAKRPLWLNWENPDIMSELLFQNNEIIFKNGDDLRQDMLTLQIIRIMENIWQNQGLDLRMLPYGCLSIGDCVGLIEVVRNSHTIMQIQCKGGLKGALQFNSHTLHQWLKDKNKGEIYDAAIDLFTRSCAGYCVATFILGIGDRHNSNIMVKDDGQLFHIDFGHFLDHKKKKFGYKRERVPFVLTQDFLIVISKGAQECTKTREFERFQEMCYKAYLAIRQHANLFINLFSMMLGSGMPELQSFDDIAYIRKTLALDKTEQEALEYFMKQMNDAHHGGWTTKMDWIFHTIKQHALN
T1 sequence (P27986 whole entry partner): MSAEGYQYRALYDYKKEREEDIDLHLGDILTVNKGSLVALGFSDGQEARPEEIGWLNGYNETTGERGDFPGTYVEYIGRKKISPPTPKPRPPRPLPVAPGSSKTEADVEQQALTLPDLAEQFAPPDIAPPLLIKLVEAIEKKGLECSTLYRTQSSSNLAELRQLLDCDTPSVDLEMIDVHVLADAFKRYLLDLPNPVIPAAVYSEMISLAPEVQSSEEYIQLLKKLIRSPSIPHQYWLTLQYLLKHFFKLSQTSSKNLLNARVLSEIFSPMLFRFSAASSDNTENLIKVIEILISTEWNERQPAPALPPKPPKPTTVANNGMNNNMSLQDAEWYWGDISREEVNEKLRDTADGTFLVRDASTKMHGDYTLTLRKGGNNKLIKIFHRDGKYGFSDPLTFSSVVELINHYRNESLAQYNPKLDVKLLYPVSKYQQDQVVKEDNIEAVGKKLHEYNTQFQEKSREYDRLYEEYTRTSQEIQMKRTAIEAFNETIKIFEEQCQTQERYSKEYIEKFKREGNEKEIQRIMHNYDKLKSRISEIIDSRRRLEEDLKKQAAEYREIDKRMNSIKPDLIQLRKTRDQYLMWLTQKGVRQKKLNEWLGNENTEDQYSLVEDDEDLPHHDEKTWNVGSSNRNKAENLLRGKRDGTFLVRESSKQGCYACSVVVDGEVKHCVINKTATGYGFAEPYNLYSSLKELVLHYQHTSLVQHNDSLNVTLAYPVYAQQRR

SMILES	IC50 [1] [µM]	IC50 [2] [µM]	Emax [1] [%]
C[C@H]1C[C@](F)(C(=O)N[C@@H]2C=CS(=O)(=O)C2)CCN1C(=O)[C@H]1CN(CC(F)(F)F)C[C@H]1c1ccccc1Cl (single isomer, unassigned) [Compound 174, (2*S,4*S)-1-((3R,4R)-4-(2-chlorophenyl)-1-(2,2,2-trifluoroethyl)pyrrolidine-3-carbonyl)-N-((R)-1,1-dioxido-2,3-dihydrothiophen-3-yl)-4-fluoro-2-methylpiperidine-4-carboxamide]	0.168	0.276	91.8
O=C(/C=C\CNC(=O)C1(F)CCN(S(=O)(=O)c2ccc(Br)cc2-c2ccccc2Cl)CC1)N1CC(F)(F)C1 [Compound 285, (Z)-1-((5-bromo-2′-chloro-[1,1′-biphenyl]-2-yl)sulfonyl)-N-(4-(3,3-difluoroazetidin-1-yl)-4-oxobut-2-en-1-yl)-4-fluoropiperidine-4-carboxamide]	0.124	0.0541	–
COC[C@@H](/C=C\S(C)(=O)=O)NC(=O)C1(F)CCN(S(=O)(=O)c2ccc(OC)cc2-c2ccccc2Cl)CC1 [Compound 248, (R,Z)-1-((2′-chloro-5-methoxy-[1,1′-biphenyl]-2-yl)sulfonyl)-4-fluoro-N-(1-methoxy-4-(methylsulfonyl)but-3-en-2-yl)piperidine-4-carboxamide]	0.557	0.17	–
C[C@H](/C=C\S(C)(=O)=O)NC(=O)[C@]1(F)CCN(S(=O)(=O)c2ccc(Br)cc2-c2cccc(Cl)c2)[C@H](C)C1 [Compound 145, (2R,4S)-1-((5-bromo-3′-chloro-[1,1′-biphenyl]-2-yl)sulfonyl)-4-fluoro-2-methyl-N-((R,Z)-4-(methylsulfonyl)but-3-en-2-yl)piperidine-4-carboxamide]	0.131	0.27	102
C[C@H](/C=C/C(=O)N1CC(F)(F)C1)NC(=O)[C@@]1(F)CCCN(C(=O)c2ccc(C(F)(F)F)cc2-c2ccccc2Cl)CC1 [Compound 244, (R)-1-(2′-chloro-5-(trifluoromethyl)-[1,1′-biphenyl]-2-carbonyl)-N-((R,E)-5-(3,3-difluoroazetidin-1-yl)-5-oxopent-3-en-2-yl)-4-fluoroazepane-4-carboxamide]	1.2	0.78	76.3
C[C@H](/C=C/C(=O)N1CC(F)(F)C1)NC(=O)C1(F)CCN(S(=O)(=O)c2cnc(C(F)(F)F)cc2-c2ccccc2Cl)CC1 [Compound 213, (R,E)-1-((4-(2-chlorophenyl)-6-(trifluoromethyl)pyridin-3-yl)sulfonyl)-N-(5-(3,3-difluoroazetidin-1-yl)-5-oxopent-3-en-2-yl)-4-fluoropiperidine-4-carboxamide]	0.291	0.23	90.8
CC(C)(/C=C/C(=O)N1CC(F)(F)C1)NC(=O)C1(F)CCN(S(=O)(=O)c2ccc(C(F)(F)F)cc2-c2ccccc2Cl)CC1 [Compound 249, (E)-1-((2′-chloro-5-(trifluoromethyl)-[1,1′-biphenyl]-2-yl)sulfonyl)-N-(5-(3,3-difluoroazetidin-1-yl)-2-methyl-5-oxopent-3-en-2-yl)-4-fluoropiperidine-4-carboxamide]	1.2	0.62	82.8
COc1ccc(C(=O)N2CCC[C@](F)(C(=O)N[C@@H]3C=CS(=O)(=O)C3)CC2)c(-c2ccccc2Cl)c1 [Compound 294, (R)-1-(2′-chloro-5-methoxy-[1,1′-biphenyl]-2-carbonyl)-N-((R)-1,1-dioxido-2,3-dihydrothiophen-3-yl)-4-fluoroazepane-4-carboxamide]	2.12	0.12	–
CCOc1ccc(S(=O)(=O)N2CC[C@@](F)(C(=O)N[C@H](C)/C=C\S(C)(=O)=O)C[C@H]2C)c(-c2ccccc2Cl)c1 [Compound 299, (2R,4S)-1-((2′-chloro-5-ethoxy-[1,1′-biphenyl]-2-yl)sulfonyl)-4-fluoro-2-methyl-N-((R,Z)-4-(methylsulfonyl)but-3-en-2-yl)piperidine-4-carboxamide]	0.146	0.21	99.6
CC[C@H](/C=C\S(C)(=O)=O)NC(=O)[C@@]1(F)CCCN(C(=O)[C@H]2CN(CC(F)(F)F)C[C@H]2c2ccccc2Cl)CC1 [Compound 198, (R)-1-((3R,4R)-4-(2-chlorophenyl)-1-(2,2,2-trifluoroethyl)pyrrolidine-3-carbonyl)-4-fluoro-N-((R,Z)-1-(methylsulfonyl)pent-1-en-3-yl)azepane-4-carboxamide]	0.472	0.54	95.2
CCOc1ccc(S(=O)(=O)N2CC[C@@](F)(C(=O)N[C@H](C)/C=C/C(=O)N3CC(F)(F)C3)C[C@H]2C)c(-c2ccccc2Cl)c1 [Compound 298, (2R,4S)-1-((2′-chloro-5-ethoxy-[1,1′-biphenyl]-2-yl)sulfonyl)-N-((R,E)-5-(3,3-difluoroazetidin-1-yl)-5-oxopent-3-en-2-yl)-4-fluoro-2-methylpiperidine-4-carboxamide]	0.322	0.72	102
C[C@H](/C=C/C(=O)N1CC(F)(F)C1)NC(=O)[C@]1(F)CCN(S(=O)(=O)c2ccc(Br)cc2-c2cccc(Cl)c2)[C@H](C)C1 [Compound 155, (2R,4S)-1-((5-bromo-3′-chloro-[1,1′-biphenyl]-2-yl)sulfonyl)-N-((R,E)-5-(3,3-difluoroazetidin-1-yl)-5-oxopent-3-en-2-yl)-4-fluoro-2-methylpiperidine-4-carboxamide]	0.305	0.3	106
C[C@H](/C=C\S(C)(=O)=O)NC(=O)[C@@]1(F)CCCN(S(=O)(=O)c2ccc(C(F)(F)F)cc2-c2ccccc2Cl)CC1 [Compound 310, (R)-1-((2′-chloro-5-(trifluoromethyl)-[1,1′-biphenyl]-2-yl)sulfonyl)-4-fluoro-N—((R,Z)-4-(methylsulfonyl)but-3-en-2-yl)azepane-4-carboxamide]	0.0771	0.085	–

Continued by falling IC50 [1], values first:

IC50 [1] [µM]	IC50 [2] [µM]	SMILES	Emax [1] [%]
0.921	0.62	C[C@H](/C=C/C(=O)N1CC(F)(F)C1)NC(=O)[C@@]1(F)CCCN(C(=O)c2ccc(C(F)(F)F)cc2-c2c(F)cccc2Cl)CC1 [Compound 245, (4R)-1-(2′-chloro-6′-fluoro-5-(trifluoromethyl)-[1,1′-biphenyl]-2-carbonyl)-N-((R,E)-5-(3,3-difluoroazetidin-1-yl)-5-oxopent-3-en-2-yl)-4-fluoroazepane-4-carboxamide]	86.2
0.679	0.75	O=C([C@H]1CN(CC(F)(F)F)C[C@H]1c1ccccc1Cl)N1CCC[C@](F)(C(=O)N[C@@H]2C=CS(=O)(=O)C2)CC1 [Compound 176, (R)-1-((3R,4R)-4-(2-chlorophenyl)-1-(2,2,2-trifluoroethyl)pyrrolidine-3-carbonyl)-N-((R)-1,1-dioxido-2,3-dihydrothiophen-3-yl)-4-fluoroazepane-4-carboxamide]	83.3
0.437	0.12	CS(=O)(=O)/C=C\[C@H](CC(F)(F)F)NC(=O)C1(F)CCN(S(=O)(=O)c2ccc(Br)cc2-c2ccccc2Cl)CC1 (single isomer, unassigned) [Compound 240, (*S,Z)-1-((5-bromo-2′-chloro-[1,1′-biphenyl]-2-yl)sulfonyl)-4-fluoro-N-(5,5,5-trifluoro-1-(methylsulfonyl)pent-1-en-3-yl)piperidine-4-carboxamide]	–
0.249	0.26	C[C@H](/C=C/C(=O)N1CC(F)(F)C1)NC(=O)[C@]1(F)CCN(S(=O)(=O)c2ccc(OC(F)F)cc2-c2ccccc2Cl)[C@H](C)C1 [Compound 251, (2R,4S)-1-((2′-chloro-5-(difluoromethoxy)-[1,1′-biphenyl]-2-yl)sulfonyl)-N-((R,E)-5-(3,3-difluoroazetidin-1-yl)-5-oxopent-3-en-2-yl)-4-fluoro-2-methylpiperidine-4-carboxamide]	102
0.248	0.161	COCc1ccc(S(=O)(=O)N2CC[C@@](F)(C(=O)N[C@H](C)/C=C\S(C)(=O)=O)C[C@H]2C)c(-c2ccccc2Cl)c1 [Compound 149, (2R,4S)-1-((2′-chloro-5-(methoxymethyl)-[1,1′-biphenyl]-2-yl)sulfonyl)-4-fluoro-2-methyl-N-((R,Z)-4-(methylsulfonyl)but-3-en-2-yl)piperidine-4-carboxamide]	109
0.205	0.183	C[C@H](/C=C/C(=O)N1CC(F)(F)C1)NC(=O)[C@]1(F)CCN(S(=O)(=O)c2ccc(Br)cc2-c2ccccc2Cl)[C@H](C)C1 [Compound 153, (2R,4S)-1-((5-bromo-2′-chloro-[1,1′-biphenyl]-2-yl)sulfonyl)-N-((R,E)-5-(3,3-difluoroazetidin-1-yl)-5-oxopent-3-en-2-yl)-4-fluoro-2-methylpiperidine-4-carboxamide]	104
0.141	0.08	COc1ccc(S(=O)(=O)N2CCC[C@](F)(C(=O)N[C@H](C)/C=C\S(C)(=O)=O)CC2)c(-c2ccccc2Cl)c1 [Compound 312, (R)-1-((2′-chloro-5-methoxy-[1,1′-biphenyl]-2-yl)sulfonyl)-4-fluoro-N-((R,Z)-4-(methylsulfonyl)but-3-en-2-yl)azepane-4-carboxamide]	–
0.0736	0.055	C[C@H](/C=C\S(=O)(=O)[C@@H]1CCN(C)C1)NC(=O)C1(F)CCN(S(=O)(=O)c2ccc(Br)cc2-c2ccccc2Cl)CC1 (single isomer, unassigned) [Compound 237, 1-((5-bromo-2′-chloro-[1,1′-biphenyl]-2-yl)sulfonyl)-4-fluoro-N-((R,Z)-4-(((*R)-1-methylpyrrolidin-3-yl)sulfonyl)but-3-en-2-yl)piperidine-4-carboxamide]	–
